Assay results: patent publication US5494909A, “Substituted oxazinoisoquinoline derivatives, pharmaceutical compositions containing them and process for preparing same” (priority 1991, dated 1996)

Experiments:
[1] = test system: excitatory amino acid receptor-dependent calcium channels; settings: literature; cited from earlier work
[2] = test system: Veratrine-stimulated Ca uptake, synaptosomes prepared from rat brain; assay type: biochemical, rat (Wistar)
Description: (§1) The calcium uptake-inhibitory effect of the compounds of the formula (I) according to the invention was studied on synaptosomes prepared from rat brain by using a method described in J. Neurochem.
(§2) Wistar rats weighing 180 to 200 g were decapitated and the brains were collected in ice-cold physiological saline, the cortex was removed and purified from the white matter. The tissue was homogenized by a glass-teflon potter in 10 volumes of a saccharose solution of 0.32 moles/liter concentration. The homogenate was centrifuged at 1000×g in a Janetzki K-70 centrifuge at 4° C. for 10 minutes, the supernatant was centrifuged at 12000×g in a Hitachi CR-26H centrifuge at 4° C. for 20 minutes. The sediment was suspended in a saccharose solution of 0.32 moles/liter concentration, then the protein content of the preparation was adjusted to 20 mg/ml.
Components of the solution used for incubation were as follows: […]
After placing the filter disks in glass cuvets, 10 ml of scintillation cocktail [containing 1000 ml of toluene, 400 ml of abs. ethanol, 10 ml of dioxane, 6 g of 2,5-diphenyloxazole and 0.15 g of 1,4-bis(5-phenyl-2-oxazolyl)benzene] and the radioactivity of the samples was measured by using an 1219 Rackbeta type liquid scintillation spectrophotometer (product of LKB Wallace Company).

[3] = test system: genetically hypertensive rats (SHR); assay: The hypobaric hypoxia test; assay type: in vivo, rat (genetically hypertensive; settings: Rattus norvegicus, 1 h; male SHR rats; 22.66 kPa; one hour after administration; protected = survival time 30% longer than control
Description: The antihypoxic effect of the target compounds was studied on genetically hypertensive rats (SHR), which are particularly sensitive to hypoxic insults. Male rats weighing 210 to 230 g each were used for these experiments.
The hypobaric hypoxia test
The experimental animals were placed in pairs in a desiccator of 6 liters volume one hour after administration of the compound to be tested. The pressure in the desiccator was decreased to 22.66 kPa (170 mmHg) during 20 seconds. The time elapsing from this point until the last respiratory movement was measured. An animal was considered to be protected when its survival time was by 30% longer in comparison with the control group.

[4] = Oral toxicity (LD50); settings: in vivo
[5] = test system: Potassium-stimulated Ca uptake, synaptosomes prepared from rat brain; assay: Inhibition of potassium-stimulated calcium uptake into rat brain synaptosomes; settings: for IC50: read-out: Inhibition of Potassium-stimulated Ca uptake IC50, 60 mmoles/l KCl, rat synaptosomes, pH 7.4, 37° C., 20 seconds
Description: as §1, §2
Components of the solution used for incubation were as follows:
Incubation solution was saturated with oxygen containing 5% by volume of carbon dioxide until reaching a pH value of 7.4. The test compounds and the synaptosome preparation in an amount corresponding to 1 mg of protein were added into the incubation solution. The final volume of incubation was 1 ml. The samples were pre-incubated at 37° C. for 20 minutes.
The calcium uptake was initiated by addition of a 45CACl2 solution of 2.8 kBq (75 nCi) activity. Potassium chloride was used in a concentration of 60 mmoles/l for the investigation of potassium-stimulated calcium uptake; sodium chloride was added in the same concentration to the control samples.
The incubation time was 20 seconds. The reaction stopped by adding 5 ml of a stopping solution containing 120 mmoles/l of sodium chloride, 5 mmoles/l of potassium chloride, 5 mmoles/l of EGTA [ethylene glycol bis(β-aminoethyl)ether-N,N, N',N'-tetraacetic acid]and 20 mmoles/l of TRIS (pH 7.4).

[6] = qualitative / comparison with reference drug

SMILES: C[C@]12N[C@H](Cc3ccccc31)c1ccccc12 [MK-801, (+)-5-methyl-10,11-dihydro-5H-dibenzo[a,d]cyclohepten-5,10-imine]
- effect on excitatory amino acid receptor-dependent calcium channels (in words) [1]: inhibit the excitatory amino acid receptor-dependent calcium channels

SMILES: COc1cc2c(cc1OCc1ccccc1)CCN1C(=Nc3ccc(C)cc3)OCCC21.Cl (stereo not shown) [compound 1507136, 9-benzyloxy-10-methoxy-4-(p-tolylimino)-1,6,7,11b-tetrahydro-2H,4H-1,3-oxazino[4,3-a]isoquinoline hydrochloride]
- veratrine-induced calcium uptake inhibitory effect (in words) [2, 6]: to a higher degree than flunarizine did
- IC50 ([2]; veratrine 20 μmoles/l, rat synaptosomes, pH 7.4, 37° C., 20 seconds, read-out: Inhibition of Veratrine-stimulated Ca uptake IC50): 0.29 µM
- ED50 [3]: 8 mg/kg
- LD50 [4]: 1400 mg/kg
- potassium-induced calcium uptake inhibitory effect (in words) [5, 6]: exceeds that of cinnarizine
- IC50 [5]: 23.9 µM

SMILES: Fc1ccc(C(c2ccc(F)cc2)N2CCN(C/C=C/c3ccccc3)CC2)cc1 [flunarizine]
- ED50 [3]: 50 mg/kg

SMILES: COCCOC(=O)C1=C(C)NC(C)=C(C(=O)OC(C)C)C1c1cccc([N+](=O)[O-])c1 (stereo not shown) [nimodipine, isopropyl 2methoxyethyl 1,4dihydro-2,6-dimethyl-4-(mnitrophenyl)-3,5-pyridinedicarboxylate, reference compound]
- ED50 [3]: 8 mg/kg
- IC50 [5]: 208 µM
